From PubChem BioAssay (NCI)
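Compound exposure: 48 hours, 5 concentrations, 96-well plates. GI50 = concentration required for 50% inhibition of growth. TGI: concentration producing complete growth inhibition.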

What was measured:
Assay in all cases: inhibition of tumour cell growth, NCI panel, 48 h
786-0 renal = tested on: 786-0 renal
A498 renal = tested on: A498 renal
ACHN renal = tested on: ACHN renal
BT-549 breast = tested on: BT-549 breast
CAKI-1 renal = tested on: CAKI-1 renal
COLO 205 colon = tested on: COLO 205 colon
DU-145 prostate = tested on: DU-145 prostate
EKVX NSCLC = tested on: EKVX NSCLC
HCC-2998 colon = tested on: HCC-2998 colon
HCT-116 colon = tested on: HCT-116 colon
HCT-15 colon = tested on: HCT-15 colon
HL-60(TB) leukemia = tested on: HL-60(TB) leukemia
HOP-62 NSCLC = tested on: HOP-62 NSCLC
HOP-92 NSCLC = tested on: HOP-92 NSCLC
HT29 colon = tested on: HT29 colon
IGROV1 ovarian = tested on: IGROV1 ovarian
K-562 leukemia = tested on: K-562 leukemia
KM12 colon = tested on: KM12 colon
LOX IMVI melanoma = tested on: LOX IMVI melanoma
MALME-3M melanoma = tested on: MALME-3M melanoma
MCF7 breast = tested on: MCF7 breast
MDA-MB-231 breast = tested on: MDA-MB-231 breast
MDA-MB-435 = tested on: MDA-MB-435
MOLT-4 leukemia = tested on: MOLT-4 leukemia
NCI-H23 lung = tested on: NCI-H23 lung
NCI-H460 lung = tested on: NCI-H460 lung
NCI/ADR-RES ovarian = tested on: NCI/ADR-RES ovarian
OVCAR-3 ovarian = tested on: OVCAR-3 ovarian
OVCAR-4 ovarian = tested on: OVCAR-4 ovarian
OVCAR-5 ovarian = tested on: OVCAR-5 ovarian
OVCAR-8 ovarian = tested on: OVCAR-8 ovarian
PC-3 prostate = tested on: PC-3 prostate
RPMI-8226 leukemia = tested on: RPMI-8226 leukemia
RXF 393 renal = tested on: RXF 393 renal
SF-268 CNS = tested on: SF-268 CNS
SF-295 CNS = tested on: SF-295 CNS
SF-539 CNS = tested on: SF-539 CNS
SK-MEL-2 melanoma = tested on: SK-MEL-2 melanoma
SK-MEL-28 melanoma = tested on: SK-MEL-28 melanoma
SK-MEL-5 melanoma = tested on: SK-MEL-5 melanoma
SK-OV-3 ovarian = tested on: SK-OV-3 ovarian
SN12C renal = tested on: SN12C renal
SNB-75 CNS = tested on: SNB-75 CNS
SW-620 colon = tested on: SW-620 colon
T-47D breast = tested on: T-47D breast
TK-10 renal = tested on: TK-10 renal
U251 CNS = tested on: U251 CNS
UACC-257 melanoma = tested on: UACC-257 melanoma
UACC-62 melanoma = tested on: UACC-62 melanoma
A549 NSCLC = tested on: A549 NSCLC
CCRF-CEM leukemia = tested on: CCRF-CEM leukemia
M14 melanoma = tested on: M14 melanoma
NCI-H226 lung = tested on: NCI-H226 lung
SNB-19 CNS = tested on: SNB-19 CNS
UO-31 renal = tested on: UO-31 renal

SMILES: CC1=C(SCc2ccccc2)C(=O)c2ccccc2C1=O
- TGI (786-0 renal): 30.9 µM
- TGI (A498 renal): 62.1 µM
- TGI (ACHN renal): 27.2 µM
- TGI (BT-549 breast): 32.1 µM
- TGI (CAKI-1 renal): 26.2 µM
- TGI (COLO 205 colon): 38.9 µM
- TGI (DU-145 prostate): 34.9 µM
- TGI (EKVX NSCLC): 44 µM
- TGI (HCC-2998 colon): 57 µM
- TGI (HCT-116 colon): 18.2 µM
- TGI (HCT-15 colon): 43.5 µM
- TGI (HL-60(TB) leukemia): > 100 µM
- TGI (HOP-62 NSCLC): 33.5 µM
- TGI (HOP-92 NSCLC): 19 µM
- TGI (HT29 colon): 90.2 µM
- TGI (IGROV1 ovarian): 25.3 µM
- TGI (K-562 leukemia): > 100 µM
- TGI (KM12 colon): 35.7 µM
- TGI (LOX IMVI melanoma): 38.2 µM
- TGI (MALME-3M melanoma): 29.2 µM
- TGI (MCF7 breast): 40.6 µM
- TGI (MDA-MB-231 breast): 41.3 µM
- TGI (MDA-MB-435): 27.9 µM
- TGI (MOLT-4 leukemia): 4.51 µM
- TGI (NCI-H23 lung): 41.8 µM
- TGI (NCI-H460 lung): 51.6 µM
- TGI (NCI/ADR-RES ovarian): 61.1 µM
- TGI (OVCAR-3 ovarian): 23.1 µM
- TGI (OVCAR-4 ovarian): 27.2 µM
- TGI (OVCAR-5 ovarian): 71.7 µM
- TGI (OVCAR-8 ovarian): 38.8 µM
- TGI (PC-3 prostate): 37.3 µM
- TGI (RPMI-8226 leukemia): 7.36 µM
- TGI (RXF 393 renal): 30.4 µM
- TGI (SF-268 CNS): 31.3 µM
- TGI (SF-295 CNS): 32.5 µM
- TGI (SF-539 CNS): 30 µM
- TGI (SK-MEL-2 melanoma): 40.1 µM
- TGI (SK-MEL-28 melanoma): 36.5 µM
- TGI (SK-MEL-5 melanoma): 31 µM
- TGI (SK-OV-3 ovarian): 44.6 µM
- TGI (SN12C renal): 40.3 µM
- TGI (SNB-75 CNS): 26.5 µM
- TGI (SW-620 colon): > 100 µM
- TGI (T-47D breast): > 100 µM
- TGI (TK-10 renal): 36.9 µM
- TGI (U251 CNS): 33.5 µM
- TGI (UACC-257 melanoma): 31.4 µM
- TGI (UACC-62 melanoma): 31.8 µM

SMILES: NC(N)=N/N=C/c1c(-c2cccs2)nc2sccn12
- GI50 (786-0 renal): 9.61 µM
- TGI (786-0 renal): 21.4 µM
- GI50 (A498 renal): 4.46 µM
- TGI (A498 renal): 13.6 µM
- GI50 (A549 NSCLC): 21.7 µM
- TGI (A549 NSCLC): 45.1 µM
- GI50 (ACHN renal): 13.2 µM
- TGI (ACHN renal): 26.5 µM
- GI50 (BT-549 breast): 19.3 µM
- TGI (BT-549 breast): 33.6 µM
- GI50 (CAKI-1 renal): 2.57 µM
- TGI (CAKI-1 renal): 16 µM
- GI50 (CCRF-CEM leukemia): 1.61 µM
- TGI (CCRF-CEM leukemia): 27.1 µM
- GI50 (DU-145 prostate): 13.6 µM
- TGI (DU-145 prostate): 26.4 µM
- GI50 (EKVX NSCLC): 6.32 µM
- TGI (EKVX NSCLC): 19.1 µM
- GI50 (HCT-116 colon): 4.23 µM
- TGI (HCT-116 colon): 17.7 µM
- GI50 (HCT-15 colon): 15.4 µM
- TGI (HCT-15 colon): 28.8 µM
- GI50 (HL-60(TB) leukemia): 12.8 µM
- TGI (HL-60(TB) leukemia): 39 µM
- GI50 (HOP-62 NSCLC): 11.2 µM
- TGI (HOP-62 NSCLC): 23.3 µM
- GI50 (HT29 colon): 13.2 µM
- TGI (HT29 colon): 27.1 µM
- GI50 (K-562 leukemia): 6.49 µM
- TGI (K-562 leukemia): 21.5 µM
- GI50 (KM12 colon): 8.24 µM
- TGI (KM12 colon): 20.7 µM
- GI50 (LOX IMVI melanoma): 14 µM
- TGI (LOX IMVI melanoma): 27 µM
- GI50 (M14 melanoma): 16.6 µM
- TGI (M14 melanoma): 30.2 µM
- GI50 (MDA-MB-231 breast): 13.4 µM
- TGI (MDA-MB-231 breast): 26.7 µM
- GI50 (MDA-MB-435): 13.2 µM
- TGI (MDA-MB-435): 25.9 µM
- GI50 (MOLT-4 leukemia): 8.48 µM
- TGI (MOLT-4 leukemia): 36.3 µM
- GI50 (NCI-H226 lung): 13.2 µM
- TGI (NCI-H226 lung): 26 µM
- GI50 (NCI-H23 lung): 14.3 µM
- TGI (NCI-H23 lung): 29 µM
- GI50 (NCI-H460 lung): 14.7 µM
- TGI (NCI-H460 lung): 39.7 µM
- GI50 (NCI/ADR-RES ovarian): 14.5 µM
- TGI (NCI/ADR-RES ovarian): 27.6 µM
- GI50 (OVCAR-3 ovarian): 3.66 µM
- TGI (OVCAR-3 ovarian): 18.1 µM
- GI50 (OVCAR-4 ovarian): 5.89 µM
- TGI (OVCAR-4 ovarian): 20 µM
- GI50 (OVCAR-5 ovarian): 17.5 µM
- TGI (OVCAR-5 ovarian): 31.3 µM
- GI50 (OVCAR-8 ovarian): 24.1 µM
- TGI (OVCAR-8 ovarian): 49 µM
- GI50 (PC-3 prostate): 11.1 µM
- TGI (PC-3 prostate): 23.1 µM
- GI50 (RPMI-8226 leukemia): 12.6 µM
- TGI (RPMI-8226 leukemia): > 100 µM
- GI50 (SF-268 CNS): 15.2 µM
- TGI (SF-268 CNS): 29.1 µM
- GI50 (SF-295 CNS): 11.5 µM
- TGI (SF-295 CNS): 23.6 µM
- GI50 (SF-539 CNS): 12.4 µM
- TGI (SF-539 CNS): 25.5 µM
- GI50 (SK-MEL-28 melanoma): 12.6 µM
- TGI (SK-MEL-28 melanoma): 25.3 µM
- GI50 (SK-MEL-5 melanoma): 13.6 µM
- TGI (SK-MEL-5 melanoma): 26.5 µM
- GI50 (SK-OV-3 ovarian): 13 µM
- TGI (SK-OV-3 ovarian): 25.7 µM
- GI50 (SN12C renal): 13.4 µM
- TGI (SN12C renal): 26.9 µM
- GI50 (SNB-19 CNS): 14.8 µM
- TGI (SNB-19 CNS): 28.6 µM
- GI50 (SNB-75 CNS): 5.66 µM
- TGI (SNB-75 CNS): 17.1 µM
- GI50 (SW-620 colon): 12.8 µM
- TGI (SW-620 colon): 28.2 µM
- GI50 (T-47D breast): 14.6 µM
- TGI (T-47D breast): 28.6 µM
- GI50 (U251 CNS): 15.8 µM
- TGI (U251 CNS): 33.9 µM
- GI50 (UACC-257 melanoma): 20.3 µM
- TGI (UACC-257 melanoma): 37.7 µM
- GI50 (UACC-62 melanoma): 14.8 µM
- TGI (UACC-62 melanoma): 28.3 µM
- GI50 (UO-31 renal): 17 µM
- TGI (UO-31 renal): 33.7 µM
